Assay results published in patent US9567325B2, “Carboxamide compounds and their use as calpain inhibitors” (AbbVie Deutschland GmbH & Co. KG, priority 2009, dated 2017).
pKi: −log10 of the molar value.

Assays:
Assay type in all cases: biochemical
[1] = molecular target: T1, calpain-1 isolated from human erythrocytes (Homo sapiens, UniProt P07384); test: Calpain I enzyme inhibition in vitro, kinetic fluorescence assay; conditions: apparent Ki calculated from IC50 by Cheng-Prussoff; 100 μM Suc-Leu-Tyr-AMC, pH 7.3, room temperature
T1 construct: 20 nM calpain-1-isolated from human erythrocytes (Calbiochem #208713); purchased Calbiochem 208713; host or cells: human erythrocytes (natural source)
T1 sequence (P07384 1-714): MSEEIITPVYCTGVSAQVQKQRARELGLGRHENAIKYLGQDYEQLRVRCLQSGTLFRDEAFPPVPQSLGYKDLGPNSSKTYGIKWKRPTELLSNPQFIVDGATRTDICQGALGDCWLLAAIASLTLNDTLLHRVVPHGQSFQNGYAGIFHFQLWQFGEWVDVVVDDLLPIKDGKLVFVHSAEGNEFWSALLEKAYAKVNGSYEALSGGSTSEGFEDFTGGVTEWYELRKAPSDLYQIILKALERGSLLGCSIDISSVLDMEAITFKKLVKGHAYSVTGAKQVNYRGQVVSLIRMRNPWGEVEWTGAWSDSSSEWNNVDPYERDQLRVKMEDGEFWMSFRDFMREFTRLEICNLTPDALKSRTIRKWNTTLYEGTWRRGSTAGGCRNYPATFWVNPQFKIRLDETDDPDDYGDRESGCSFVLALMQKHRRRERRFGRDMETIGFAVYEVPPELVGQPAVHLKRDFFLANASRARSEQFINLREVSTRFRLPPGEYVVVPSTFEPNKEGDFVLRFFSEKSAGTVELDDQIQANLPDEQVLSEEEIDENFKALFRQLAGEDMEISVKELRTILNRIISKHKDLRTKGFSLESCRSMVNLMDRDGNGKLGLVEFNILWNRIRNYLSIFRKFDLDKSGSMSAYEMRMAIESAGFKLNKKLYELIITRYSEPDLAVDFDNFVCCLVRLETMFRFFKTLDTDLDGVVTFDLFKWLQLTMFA
T1 sequence (P04632 1-268 partner): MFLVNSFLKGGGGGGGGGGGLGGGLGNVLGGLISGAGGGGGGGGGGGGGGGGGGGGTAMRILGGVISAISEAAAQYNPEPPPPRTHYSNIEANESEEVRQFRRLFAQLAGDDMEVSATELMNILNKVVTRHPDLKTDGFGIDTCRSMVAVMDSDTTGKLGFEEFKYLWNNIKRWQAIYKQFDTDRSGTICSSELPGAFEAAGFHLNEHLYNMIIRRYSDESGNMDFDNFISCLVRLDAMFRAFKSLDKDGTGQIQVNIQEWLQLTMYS
Description: (§1) The following solutions and buffers were employed: • HBS (for 40 ml): 800 μl 1M HEPES; 2.16 ml 100 mM KCl; 4.8 ml 1M NaCl; 3.59 ml 5% glucose; 60 μl 1M MgSO4; 400 μl 100 mM Na pyruvate, 28.19 ml water; pH 7.2-7.5. • lysis buffer (for 20 ml): 400 μl 1M Tris pH 8.2; 2.74 ml 1M NaCl; 520 μl 0.5M EDTA; 2 ml 10% triton X-100; 0.8 ml (=1:25) CompletePlus (1 tablet/2 ml H2O); 200 μl 100 mM Pefabloc; 13.34 ml water, pH 8.2. • TBST (10×) (for 11): 100 mM Tris (12.1 g); 1.5M NaCl (87 g); 1% Tween 20 (10 g), adjusted to pH 8. I Enzyme Inhibition In Vitro: • Testing for blockade of the corresponding enzymic activities was carried out by means of kinetic fluorescence assays (excitation 390 nm, emission 460 nm). • Apparent Ki values were calculated from the experimentally determined IC50 values by the Cheng-Prussoff relation assuming a reversible competitive enzyme inhibition. The Km values of the substrates used under the assay conditions indicated above were: 90 μM (Z-Phe-Arg-AMC, cathepsin B), 10 μM (Z-Gly-Pro-Arg-AMC, cathepsin K), 2 μM (Z-Phe-Arg-AMC, cathepsin L), and 30 μM (Z-Val-Val-Arg-AMC, cathepsin S). • The indicated Ki values are averages of the inhibition constants calculated on the basis of 2 to 4 independent dose-effect plots. • The following assays were used: • 1. Calpain I: • 20 nM calpain-1-isolated from human erythrocytes (Calbiochem #208713), 100 μM Suc-Leu-Tyr-AMC (Bachem #1-1355) as substrate in buffer with 62 mM imidazole, 0.3 mM CaCl2, 0.10% CHAPS, 0.05% BSA, 1 mM DTT at pH 7.3 and room temperature. • 2. Cathepsin B: • 0.25 nM cathepsin B—isolated from human liver (Calbiochem #219362), 100 μM Z-Phe-Arg-AMC (Bachem #1-1160) as substrate 50 mM MES, 2 mM EDTA, 0.05% Brij 35, 2.5 mM L-cysteine, pH 6.0, room temperature. • 3. Cathepsin K: • 3 nM cathepsin K-activated from recombinant human procathepsin K from E. coli (Calbiochem #342001), 10 μM Z-Gly-Pro-Arg-AMC (Biomol #P-142) as substrate in 50 mM MES, 2 mM EDTA, 0.05% Brij 35, 2.5 mM L-cysteine, pH 6.0, room temperature. • 4. Cathepsin L: • 1 nM cathepsin L—isolated from human liver (Calbiochem #219402), 2 μM Z-Phe-Arg-AMC (Bachem #1-1160) as substrate in 50 mM MES, 2 mM EDTA, 0.05% Brij 35, 2.5 mM L-cysteine, pH 6.0, room temperature. • 5. Cathepsin S: • 0.5 nM recombinant human cathepsin S from E. coli (Calbiochem #219343), 20 μM Z-Val-Val-Arg-AMC (Bachem #I-1540) as substrate in 50 mM MES, 2 mM EDTA, 0.05% Brij 35, 2.5 mM L-cysteine, pH 6.0, room temperature. • The results of the in vitro determination are indicated in Table 1. The following abbreviations are used in Table 1: • In the “Calpain activity” column, +++ stands for a calpain Ki (Ki(calpain)) of ≦40 nM, and ++ means: 40 nM<Ki(Calpain)≦100 nM and + means 100 nM<Ki(Calpain)≦300 nM. • The “Sel. cat. B” column indicates the Ki(cathepsin B)/Ki(calpain) ratio. In this connection, ++ means a Ki(cathepsin B)/Ki(calpain) ratio of ≧30 and + means 10≦Ki(cathepsin B)/Ki(calpain)<30. • The “Sel. cat. K” column indicates the Ki(cathepsin K)/Ki(calpain) ratio. In this connection, ++ means a Ki(cathepsin K)/Ki(calpain) ratio of ≧30 and + means 10≦Ki(cathepsin K)/Ki(calpain)<30. • The “Sel. cat. L” column indicates the Ki(cathepsin L)/Ki(calpain) ratio. In this connection, ++ means a Ki(cathepsin L)/Ki(calpain) ratio of ≧50 and + means 30≦Ki(cathepsin L)/Ki(calpain)<50. • The “Sel. cat. S” column indicates the Ki(cathepsin S)/Ki(calpain) ratio. In this connection, ++ means a Ki(cathepsin S)/Ki(calpain) ratio of ≧100 and + means 50≦Ki(cathepsin S)/Ki(calpain)<100.

[2] = molecular target: T2, cathepsin K activated from recombinant human procathepsin K (Homo sapiens, UniProt P43235); test: Cathepsin K enzyme inhibition in vitro, kinetic fluorescence assay (selectivity vs calpain); conditions: ratio of Ki values; Z-Gly-Pro-Arg-AMC substrate, pH 6.0
T2 construct: purchased Calbiochem 342001; host or cells: E. coli
T2 sequence (P43235 115-329): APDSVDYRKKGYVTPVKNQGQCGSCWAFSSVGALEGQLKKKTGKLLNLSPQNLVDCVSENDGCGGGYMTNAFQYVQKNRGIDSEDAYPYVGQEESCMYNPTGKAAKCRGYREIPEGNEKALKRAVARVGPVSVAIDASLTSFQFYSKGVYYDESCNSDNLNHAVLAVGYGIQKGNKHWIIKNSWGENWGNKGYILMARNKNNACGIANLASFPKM
Description: as §1

[3] = molecular target: T3, recombinant human cathepsin S (Homo sapiens, UniProt P25774); test: Cathepsin S enzyme inhibition in vitro, kinetic fluorescence assay (selectivity vs calpain); conditions: ratio of Ki values; Z-Val-Val-Arg-AMC substrate, pH 6.0
T3 construct: purchased Calbiochem 219343; host or cells: E. coli
T3 sequence (P25774 115-331): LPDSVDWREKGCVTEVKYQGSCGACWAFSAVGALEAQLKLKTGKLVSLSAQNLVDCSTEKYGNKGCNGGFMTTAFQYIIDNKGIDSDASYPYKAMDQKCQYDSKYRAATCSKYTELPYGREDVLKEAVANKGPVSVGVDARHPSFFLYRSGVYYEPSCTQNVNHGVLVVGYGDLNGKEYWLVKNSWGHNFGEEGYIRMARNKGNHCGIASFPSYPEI
Description: as §1

[4] = molecular target: T4, cathepsin L isolated from human liver (Homo sapiens, UniProt P07711); test: Cathepsin L enzyme inhibition in vitro, kinetic fluorescence assay (selectivity vs calpain); conditions: ratio of Ki values; Z-Phe-Arg-AMC substrate, pH 6.0
T4 construct: 1 nM cathepsin L—isolated from human liver (Calbiochem #219402); purchased Calbiochem 219402; host or cells: human liver (natural source)
T4 sequence (P07711 114-333): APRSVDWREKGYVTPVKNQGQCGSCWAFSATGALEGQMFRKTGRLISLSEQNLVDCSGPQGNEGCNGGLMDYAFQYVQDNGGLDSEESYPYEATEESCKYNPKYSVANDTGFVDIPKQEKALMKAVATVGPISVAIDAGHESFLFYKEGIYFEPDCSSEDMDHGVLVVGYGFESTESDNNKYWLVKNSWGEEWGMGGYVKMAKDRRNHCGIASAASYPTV
Description: as §1

[5] = molecular target: T5, cathepsin B isolated from human liver (Homo sapiens, UniProt P07858); test: Cathepsin B enzyme inhibition in vitro, kinetic fluorescence assay (selectivity vs calpain); conditions: ratio of Ki values; Z-Phe-Arg-AMC substrate, pH 6.0
T5 construct: 0.25 nM cathepsin B—isolated from human liver (Calbiochem #219362); purchased Calbiochem 219362; host or cells: human liver (natural source)
Description: as §1

SMILES	pKi [1]	Sel cat. K (Ki(cathepsin K)/Ki(calpain) ratio) [2]	Sel cat. S (Ki(cathepsin S)/Ki(calpain) ratio) [3]	Sel cat. L (Ki(cathepsin L)/Ki(calpain) ratio) [4]	Sel cat. B (Ki(cathepsin B)/Ki(calpain) ratio) [5]
NC(=O)C(=O)C(Cc1ccccc1)NC(=O)c1cccnc1-c1ncc(-c2ccccc2)[nH]1 (stereo not drawn) [Example 2, N-(4-Amino-3,4-dioxo-1-phenylbutan-2-yl)-2-(5-phenyl-1H-imidazol-2-yl)pyridine-3-carboxamide]	6.52 to 7.00	+ (+ means 10≦Ki(cathepsin K)/Ki(calpain)<30)	–	–	–
NC(=O)C(=O)C(Cc1ccccc1)NC(=O)c1cccnc1-c1nc(-c2ccc(F)cc2)cs1 (stereo not drawn) [Example 4, N-(4-Amino-3,4-dioxo-1-phenylbutan-2-yl)-2-[4-(4-fluorophenyl)-1,3-thiazol-2-yl]pyridine-3-carboxamide]	7.00 to 7.40	+ (+ means 10≦Ki(cathepsin K)/Ki(calpain)<30)	++ (++ means a Ki(cathepsin S)/Ki(calpain) ratio of ≧100)	++ (++ means a Ki(cathepsin L)/Ki(calpain) ratio of ≧50)	+ (+ means 10≦Ki(cathepsin B)/Ki(calpain)<30)
NC(=O)C(=O)C(Cc1ccccc1)NC(=O)c1cccnc1-c1csc(-c2ccc(F)cc2)n1 (stereo not drawn) [Example 5, N-(4-Amino-3,4-dioxo-1-phenylbutan-2-yl)-2-[2-(4-fluorophenyl)-1,3-thiazol-4-yl]pyridine-3-carboxamide]	7.00 to 7.40	–	++ (++ means a Ki(cathepsin S)/Ki(calpain) ratio of ≧100)	+ (+ means 30≦Ki(cathepsin L)/Ki(calpain)<50)	+ (+ means 10≦Ki(cathepsin B)/Ki(calpain)<30)
NC(=O)C(=O)C(Cc1ccccc1)NC(=O)c1cccnc1-c1nc2ccccc2o1 (stereo not drawn) [Example 16, N-(4-amino-3,4-dioxo-1-phenylbutan-2-yl)-2-(benzo[d]oxazol-2-yl)nicotinamide]	6.52 to 7.00	+ (+ means 10≦Ki(cathepsin K)/Ki(calpain)<30)	++ (++ means a Ki(cathepsin S)/Ki(calpain) ratio of ≧100)	–	+ (+ means 10≦Ki(cathepsin B)/Ki(calpain)<30)

Continued, in another order:

pKi [1]	SMILES	Sel cat. K (Ki(cathepsin K)/Ki(calpain) ratio) [2]	Sel cat. S (Ki(cathepsin S)/Ki(calpain) ratio) [3]	Sel cat. L (Ki(cathepsin L)/Ki(calpain) ratio) [4]	Sel cat. B (Ki(cathepsin B)/Ki(calpain) ratio) [5]
7.00 to 7.40	NC(=O)C(=O)C(Cc1ccccc1)NC(=O)c1cccnc1-c1nc2ccccc2s1 (stereo not drawn) [Example 3, N-(4-Amino-3,4-dioxo-1-phenylbutan-2-yl)-2-(1,3-benzothiazol-2-yl)pyridine-3-carboxamide]	+ (+ means 10≦Ki(cathepsin K)/Ki(calpain)<30)	++ (++ means a Ki(cathepsin S)/Ki(calpain) ratio of ≧100)	++ (++ means a Ki(cathepsin L)/Ki(calpain) ratio of ≧50)	+ (+ means 10≦Ki(cathepsin B)/Ki(calpain)<30)
≥ 7.40	NC(=O)C(=O)C(Cc1ccccc1)NC(=O)c1cccnc1-c1csc(-c2cccc(C(F)(F)F)c2)n1 (stereo not drawn) [Example 6, N-(4-Amino-3,4-dioxo-1-phenylbutan-2-yl)-2-{2-[3-(trifluoromethyl)phenyl]-1,3-thiazol-4-yl}pyridine-3-carboxamide]	+ (+ means 10≦Ki(cathepsin K)/Ki(calpain)<30)	++ (++ means a Ki(cathepsin S)/Ki(calpain) ratio of ≧100)	++ (++ means a Ki(cathepsin L)/Ki(calpain) ratio of ≧50)	++ (++ means a Ki(cathepsin B)/Ki(calpain) ratio of ≧30)
≥ 7.40	NC(=O)C(=O)C(Cc1ccccc1)NC(=O)c1cccnc1-c1csc(-c2ccccc2)n1 (stereo not drawn) [Example 7, N-(4-Amino-3,4-dioxo-1-phenylbutan-2-yl)-2-(2-phenyl-1,3-thiazol-4-yl)pyridine-3-carboxamide]	+ (+ means 10≦Ki(cathepsin K)/Ki(calpain)<30)	++ (++ means a Ki(cathepsin S)/Ki(calpain) ratio of ≧100)	++ (++ means a Ki(cathepsin L)/Ki(calpain) ratio of ≧50)	++ (++ means a Ki(cathepsin B)/Ki(calpain) ratio of ≧30)
